Reference: US7714014B2, “Targeting GLI proteins in human cancer by small molecules” (The Regents of the University of California, priority 2005, dated 2010)

Key:
[1] = test system: human breast cancer cell line MCF-7; assay: Cell survival assay (crystal violet); assay type: cell-based; conditions: for cell killing: MCF-7, 50 μM
Description: (§1) Typically, the small molecule compounds of the present invention were dissolved in DMSO at a concentration of 30 mM. The small molecule compounds were then tested under cell culture conditions at different concentrations ranging from 0, 10, 30, 50, to 100 uM. To determine cell survival after treatment, the cells were incubated with the small molecule compounds in 6-well plates for about 3 days. After removal of the cell culture medium, 1-ml of 0.5% crystal violet solution (prepared in 20% ethanol and 20% methanol) was added to stain the cells for 5 min. Then the crystal violet solution was rinsed clean with tap water. Cell survival was estimated based on the density of crystal stained plates.
(§2) The cell-based cytotoxicity assay described herein was used to determine the effect of small molecule compounds FN1-5 and FN1-8 in the human breast cancer cell line MCF-7. Viability of MCF-7 cells was analyzed after treatment with 30 and 50 μM FN1-5 and after treatment with 10, 30, and 50 μM FN1-8.

[2] = test system: human prostate cancer cell line LnCAP; assay: Cell survival assay (crystal violet); assay type: cell-based; conditions: FN1-8 at 50 μM, FN1-5 30 and 50 μM
Description: as §1
as §2, with “FN1-8 on” for “FN1-8 in”, “human prostate” for “human breast”, “line LnCAP.” for “line MCF-7.”, “of LnCAP” for “of MCF-7”

[3] = test system: Hedgehog (Hh) signaling pathway (Ptch1, Gli1) in NSCLC cell lines H460 and A549; assay: Semi-quantitative RT-PCR of Hedgehog pathway genes; assay type: cell-based, human; conditions: for expression of Hh pathway key components and direct target genes (Ptch1, Gli1): 30 μM, 2 days, data not shown
Description: Total RNA from cell lines or tissue samples was isolated using Qiagen RNeasy Mini Kit (Valencia, Calif.). RT-PCR was performed in GeneAmp PCR system 2700 (Applied Biosystems, Foster City, Calif.) using One-step RT-PCR Kit from Invitrogen Life Technologies (Carlsbad, Calif.). Primers for RT-PCR were obtained from Operon Technologies Inc. (Alameda, Calif.). Primer sequences for amplifying different genes in Hedgehog and Wnt signaling pathways are listed in the table below (Table 1; F, forward primer; R, reverse primer). The expected size of the PCR product is indicated for each primer pair. GAPDH was used as internal control.
To further examine the mechanism of action of the small molecule compounds of the present invention, the effect of compounds FN1-5 and FN1-8 on the Hedgehog (Hh) signaling pathway was examined in NSCLC cell lines H460 and A549. H460 and A549 cells were incubated with 30 μM of each compound (FN1-5 or FN1-8) for 2 days before isolation of total RNA that was used for semi-quantitative RT-PCR analysis. […] GAPDH served as a control.

Colon Cancer HT29 tumor = assay: Mouse Xenograft Model (Colon Cancer HT29); assay type: in vivo
Description: The small molecule compound FN1-8 was tested in vivo in the mouse xenograft model bearing human cancer cells. Briefly, female athymic nude mice strain NCRNU-M (5-10 weeks old, 20-25 grams in weight; Taconic, Germantown, N.Y.) was maintained in pathogen-free conditions. Three human cancer cell lines: NSCLC H460, melanoma LOX, (both showing Gli3 activation), and colon cancer HT29 (no Gli3 activation, as a negative control), were used. Ten mice were used in each group and injected s.c. with 3×10^6 cancer cells in the dorsal area in a volume of 100 μl. After inoculation, human cancer cells were allowed to grow in mice for 7 days to become visible tumor nodules. Animals were then injected with small molecule compound FN1-8 at a dose of 50 mg/kg body weight (1 mg/mouse per day). DMSO alone was used as control. The compounds and controls were adjusted in 40 ul volume for i.p. injection in the abdomens of the mice. […] Tumor size was measured every three days, and tumor volumes were calculated using width (x) and length (y) (x^2y/2, where x<y). […]
In vivo efficacy study of small molecule compound FN1-8 were also performed using a negative Mouse Xenograft Model (Colon Cancer HT29). […] Tumor size was measured with a caliper every three days. Tumor volumes were calculated using the equation x^2y (where x<y). […]

normal human renal cells = assay: Cell survival assay (crystal violet); assay type: cell-based; conditions: FN1-5 30 and 50 μM; FN1-8 10, 30, and 50 μM; 3 days
Description: as §1
The cell killing effect of small molecule compounds FN1-5, and FN1-8 at different doses was examined in normal human renal cells. Normal renal cells were plated in 6-well plates and incubated with 30 and 50 μM of compound FN1-5 and 10, 30, and 50 μM FN1-8 for 3 days, in the same manner as described herein for similar other experiments.

Row | SMILES | cell killing potency compared with FN1-5 ([1]; MCF-7) | cell killing [1] | cell killing [2] | inhibitory effect on Hh and Wnt pathways compared with FN1-5 [3] | expression of Hh pathway key components and direct target genes (Ptch1, Gli1) [3] | tumor growth (Colon Cancer HT29 tumor; 50 mg/kg i.p. daily for 2×6 days) | cell killing effect in normal cells (normal human renal cells) | tumor weight (Colon Cancer HT29 tumor; 15 mg/kg daily 2×6 days then 30 mg/kg daily 1×6 days i.p., 43 days after inoculation)
1 | O=C(NCCc1ccc(O)cc1)C1C(c2ccccc2)=NN(c2ccccc2)C1c1ccccc1 (stereo not drawn) [FN1-8, N-(2-(4-Hydroxyphenyl)ethyl)-1,3,5-triphenyl-4,5-dihydro-pyrazole-4-carboxyamide] | more potent | dramatic cell killing | dramatic cell killing | more inhibitory effect | downregulated | not affected | No noticeable cell killing effect | 
2 | O=C(NCCCCCO)C1C(c2ccccc2)=NN(c2ccccc2)C1c1ccccc1 (stereo not drawn) [FN1-5, N-(5-Hydroxypentyl)-1,3,5-triphenyl-4,5-dihydro-pyrazole-4-carboxyamide] |  | dramatic cell killing | much lesser cell killing effect |  | downregulated |  | No noticeable cell killing effect | slightly decreased the tumor weight
